Assays:
[1] = target: T1, point mutations of WNK1 (1–491) (Homo sapiens, UniProt Q9H4A3, M304A); experiment: MST, EGFP-tagged point mutations of WNK1 (1–491); format: binding; settings: WNK1-N M304A
T1 construct: EGFP‐tagged point mutations of WNK1 (1–491) (15 min) in lysates; expressed in transfected cells; host or cells: HEK293T
Text: (§1) Molecular docking identified several crucial amino acid residues within binding site 1 of the kinase domain for the binding of WNK1 and bilirubin. These residues included Thr301 (T301), Met304 (M304), Lys351 (K351), and Phe356 (F356) (Figure 3C). To investigate this further, we constructed WNK1‐N mutants by replacing these residues with alanine (A). […] This finding highlights the critical role of these residues in bilirubin binding.
(§2) In HEK293T cells, proteins tagged with green fluorescent protein (GFP) were expressed. The cells were lysed using the M‐PER Mammalian Protein Extraction Reagent (cat. no. 78505, Thermo Scientific) supplemented with protease inhibitors. Lysates were centrifuged at 12000 × g for 15 min at 4 °C, and the supernatant containing proteins was diluted 10‐fold with 1x PBST. Protein fluorescence intensity and solubility were assessed using capillary scanning at 60% LED power.
(§3) For the binding assay, the proteins were mixed with ligands and incubated for 15 min at room temperature before being loaded into Monolith NT.115 Capillaries or NT.115 Premium Capillaries (NanoTemper Technologies, MO‐K022 and MO‐K025). MST measurements were performed on a Monolith NT.115 instrument (NanoTemper Technologies) at 25 °C. Instrument parameters included no more than 80% excitation power and a medium MST power. Data analysis was conducted using the MO. Affinity Analysis software (NanoTemper Technologies).

[2] = target: T2, point mutations of WNK1 (1–491) (Homo sapiens, UniProt Q9H4A3, T301A); experiment: MST, EGFP-tagged point mutations of WNK1 (1–491); format: binding; settings: WNK1-N T301A
T2 construct: EGFP‐tagged point mutations of WNK1 (1–491) (15 min) in lysates; expressed in transfected cells; host or cells: HEK293T
Text: as §1, §2, §3

[3] = target: T3, point mutations of WNK1 (1–491) (Homo sapiens, UniProt Q9H4A3, F356A); experiment: MST, EGFP-tagged point mutations of WNK1 (1–491); format: binding; settings: WNK1-N F356A
T3 construct: EGFP‐tagged point mutations of WNK1 (1–491) (15 min) in lysates; expressed in transfected cells; host or cells: HEK293T
Text: as §1, §2, §3

[4] = target: T4, point mutations of WNK1 (1–491) (Homo sapiens, UniProt Q9H4A3, K351A); experiment: MST, EGFP-tagged point mutations of WNK1 (1–491); format: binding; settings: WNK1-N K351A
T4 construct: EGFP‐tagged point mutations of WNK1 (1–491) (15 min) in lysates; expressed in transfected cells; host or cells: HEK293T
Text: as §1, §2, §3

[5] = target: T5, hWNK1 (181–507) (Homo sapiens, UniProt Q9H4A3); experiment: ADP-Glo kinase assay, purified hWNK1 kinase domain; format: biochemical; settings: ADP production, luminescence normalized to reactions lacking bilirubin; 12 serial dilutions from 20 µM; read-out: EC50, activation of WNK1 kinase activity
T5 construct: the amino acid fragment 181–507 of human WNK1 (hWNK1)
Text: Given the binding of bilirubin to the kinase domain of WNK1, we aimed to explore its effect on WNK1 with a particular focus on its kinase activity. To evaluate WNK1 kinase activity, we utilized an in vitro kinase enzyme assay system to quantify ADP production by the amino acid fragment 181–507 of human WNK1 (hWNK1) over a range of bilirubin concentrations. The kinase‐dead WNK1 mutant hWNK1(181–507 S382A) served as a negative control (Figure S10, Supporting Information).^[ [30] ^]
WNK1 kinase activity was measured using the ADP‐Glo Kinase Assay (Promega, Cat. V9101) following the manufacturer's instructions. Purified protein was incubated with bilirubin across a range of 12 serially diluted concentrations, beginning at a maximum concentration of 20 µM. After the incubation period, luminescence was recorded using a microplate reader (Synergy H1M, BioTek)

[6] = target: T6, WNK1 (491–2382) (Homo sapiens, UniProt Q9H4A3); experiment: MST, EGFP-tagged WNK1 truncation 491–2382; format: binding; settings: WNK1 491–2382 (non-kinase segment), 15 min, HEK293T lysates
T6 construct: different lengths of WNK1 truncations (1–491, 1–190, 191–491, 491–2382); expressed in transfected cells; host or cells: HEK293T
Text: To further validate these findings, we constructed GFP‐tagged fusion proteins with different lengths of WNK1 truncations (1–491, 1–190, 191–491, 491–2382) based on the WNK1 domains (Figure 3E) and analyzed their binding capacity with bilirubin using MST analysis.^[ [29] ^]
All WNK1 clones were derived from the original untagged hWNK1 cDNA (NM_018979), which was modified and subcloned into the pcDNA3.1, referred to as “full‐length WNK1” throughout this study. Truncated constructs, including 1–190aa, 191–491aa, 1–491aa, and 491–2382aa fragments, were generated by PCR using the full‐length template and subsequently ligated into linearized pcDNA3.1 vectors. WNK2 was obtained from Addgene Plasmid #24569, and WNK3 was obtained from Addgene Plasmid #81723. Both were subjected to base modifications and cloned into pcDNA3.1. The WNK4 clone was derived from hWNK4 cDNA (NM_032387.5), modified, and subcloned into the pCMV3‐C‐GFPSpark vector.
as §2, with “Protein fluorescence intensity and solubility were assessed using capillary scanning at 60% LED power.” left out

T2 sequence (Q9H4A3 1-491 T301A): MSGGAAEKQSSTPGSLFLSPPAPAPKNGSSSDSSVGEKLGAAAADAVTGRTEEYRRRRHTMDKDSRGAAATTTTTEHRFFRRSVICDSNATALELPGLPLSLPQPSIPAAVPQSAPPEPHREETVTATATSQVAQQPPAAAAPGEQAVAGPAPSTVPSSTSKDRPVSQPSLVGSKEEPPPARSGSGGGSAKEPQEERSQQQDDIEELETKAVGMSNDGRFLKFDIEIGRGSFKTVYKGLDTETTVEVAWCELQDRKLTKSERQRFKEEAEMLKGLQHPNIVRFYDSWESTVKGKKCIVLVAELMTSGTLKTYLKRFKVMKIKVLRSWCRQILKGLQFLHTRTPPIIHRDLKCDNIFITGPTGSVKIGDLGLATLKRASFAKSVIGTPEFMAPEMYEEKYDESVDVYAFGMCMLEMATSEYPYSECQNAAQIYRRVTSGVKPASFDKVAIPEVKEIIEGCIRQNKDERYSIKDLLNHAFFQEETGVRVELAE
T3 sequence (Q9H4A3 1-491 F356A): as the sequence (Q9H4A3 1-491 T301A) above, with A301T, F356A counted along it
T5 sequence (Q9H4A3 181-507): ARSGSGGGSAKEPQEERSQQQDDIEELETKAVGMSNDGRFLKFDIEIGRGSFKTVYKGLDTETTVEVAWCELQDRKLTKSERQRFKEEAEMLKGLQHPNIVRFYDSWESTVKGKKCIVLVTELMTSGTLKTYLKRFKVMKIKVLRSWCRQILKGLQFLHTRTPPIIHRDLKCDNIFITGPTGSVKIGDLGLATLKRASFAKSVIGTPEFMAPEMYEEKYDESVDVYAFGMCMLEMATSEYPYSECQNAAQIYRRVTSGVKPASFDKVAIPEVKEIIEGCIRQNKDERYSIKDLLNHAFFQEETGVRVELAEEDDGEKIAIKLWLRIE
T1 sequence (Q9H4A3 1-491 M304A): as the sequence (Q9H4A3 1-491 T301A) above, with A301T, M304A counted along it
T4 sequence (Q9H4A3 1-491 K351A): as the sequence (Q9H4A3 1-491 T301A) above, with A301T, K351A counted along it
T6 sequence (Q9H4A3 491-2382): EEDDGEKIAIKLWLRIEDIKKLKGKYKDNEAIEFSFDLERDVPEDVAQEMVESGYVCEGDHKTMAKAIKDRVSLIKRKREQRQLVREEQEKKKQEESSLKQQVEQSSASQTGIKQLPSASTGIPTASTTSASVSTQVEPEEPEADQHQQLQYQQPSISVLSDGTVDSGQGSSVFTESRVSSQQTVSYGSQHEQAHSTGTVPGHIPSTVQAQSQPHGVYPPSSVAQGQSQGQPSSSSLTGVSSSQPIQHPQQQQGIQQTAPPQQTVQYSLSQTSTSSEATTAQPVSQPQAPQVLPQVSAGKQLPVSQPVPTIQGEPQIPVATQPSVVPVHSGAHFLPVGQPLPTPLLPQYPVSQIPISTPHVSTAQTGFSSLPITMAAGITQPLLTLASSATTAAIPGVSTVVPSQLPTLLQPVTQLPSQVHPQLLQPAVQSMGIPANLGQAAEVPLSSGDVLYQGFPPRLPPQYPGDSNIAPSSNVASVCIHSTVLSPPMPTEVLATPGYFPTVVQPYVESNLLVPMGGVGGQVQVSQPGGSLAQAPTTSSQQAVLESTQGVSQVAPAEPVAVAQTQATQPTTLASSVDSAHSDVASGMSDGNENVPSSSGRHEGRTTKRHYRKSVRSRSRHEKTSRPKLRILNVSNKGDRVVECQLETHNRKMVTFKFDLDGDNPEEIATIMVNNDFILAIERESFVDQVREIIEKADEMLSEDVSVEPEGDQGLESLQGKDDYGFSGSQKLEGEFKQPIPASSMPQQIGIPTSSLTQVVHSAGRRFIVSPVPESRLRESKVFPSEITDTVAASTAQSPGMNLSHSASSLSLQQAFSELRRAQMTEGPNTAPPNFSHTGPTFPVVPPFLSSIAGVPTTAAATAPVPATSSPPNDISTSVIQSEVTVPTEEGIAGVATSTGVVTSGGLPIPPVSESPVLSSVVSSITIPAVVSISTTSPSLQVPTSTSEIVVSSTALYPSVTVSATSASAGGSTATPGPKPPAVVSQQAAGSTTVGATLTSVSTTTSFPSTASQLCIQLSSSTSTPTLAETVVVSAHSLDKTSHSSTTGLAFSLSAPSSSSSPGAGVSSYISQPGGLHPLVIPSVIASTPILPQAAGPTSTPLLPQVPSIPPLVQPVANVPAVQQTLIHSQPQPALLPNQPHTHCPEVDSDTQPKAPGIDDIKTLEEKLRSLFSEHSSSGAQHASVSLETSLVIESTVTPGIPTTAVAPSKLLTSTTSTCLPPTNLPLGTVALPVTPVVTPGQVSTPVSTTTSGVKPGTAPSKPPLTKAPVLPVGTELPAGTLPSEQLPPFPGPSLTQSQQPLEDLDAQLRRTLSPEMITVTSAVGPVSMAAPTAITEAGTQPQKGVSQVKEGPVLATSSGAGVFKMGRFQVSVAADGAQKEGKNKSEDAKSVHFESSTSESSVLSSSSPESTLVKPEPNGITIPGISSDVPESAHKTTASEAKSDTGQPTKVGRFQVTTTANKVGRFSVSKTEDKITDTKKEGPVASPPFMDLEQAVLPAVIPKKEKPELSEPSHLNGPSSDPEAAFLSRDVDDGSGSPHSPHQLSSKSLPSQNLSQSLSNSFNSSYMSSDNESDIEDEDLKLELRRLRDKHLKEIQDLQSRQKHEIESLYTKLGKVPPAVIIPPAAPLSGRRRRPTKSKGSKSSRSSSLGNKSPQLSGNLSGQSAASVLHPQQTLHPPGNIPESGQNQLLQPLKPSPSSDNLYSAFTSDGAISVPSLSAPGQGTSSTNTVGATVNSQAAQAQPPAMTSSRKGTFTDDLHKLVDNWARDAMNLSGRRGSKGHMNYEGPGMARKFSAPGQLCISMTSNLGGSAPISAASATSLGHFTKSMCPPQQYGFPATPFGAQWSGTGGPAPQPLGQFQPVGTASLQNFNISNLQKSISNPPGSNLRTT

C=CC1=C(C)/C(=C/c2[nH]c(Cc3[nH]c(/C=C4\NC(=O)C(C)=C4C=C)c(C)c3CCC(=O)O)c(CCC(=O)O)c2C)NC1=O [bilirubin, Bilirubin]
binding to M304A mutant [1]: reduced binding affinity | binding to T301A mutant [2]: unable to bind | binding to F356A mutant [3]: reduced binding affinity | binding to K351A mutant [4]: reduced binding affinity | EC50 [5]: 896 nM | Kd [6]: 3190 nM
